Measurements taken from US8980933B2, “Combretastatin analogs for use in the treatment of cancer” (Universitat Bayreuth, priority 2010, dated 2015).
Values after ≈ are worked out from the molar mass of the structure shown. Values joined by “and” are separate entries in the source; they are usually repeats but may differ in a detail not shown here. Equal entries are not always repeated.

Assays:
PC-3 prostata cancer = test: Cytotoxicity, PC-3; format: cell-based
Procedure: (§1) The compounds 9a, 9b and 9c, which are exemplary compounds of formula (III) according to the present invention, as well as the reference compound 25f were tested in a similar manner.

KB-3-1 cervix carcinoma = test: Cytotoxicity, KB-3-1; format: cell-based; conditions: Homo sapiens
Procedure: as §1

L929 fibroblasts = test: Cytotoxicity, L929; format: cell-based; conditions: Mus musculus, read-out: IC50 L-929
Procedure: as §1

[1] = test system: PtK-2 opossum kidney cells; test: Cytotoxicity, PtK-2; format: cell-based; conditions: PtK2; PtK-2 opossum kidney cells (non-malign)
Procedure: as §1

HUVEC cells [2] = test: Minimal inhibitory concentration in HUVEC; format: cell-based
Procedure: as §1

NHDF fibroblasts = test: Cytotoxicity, NHDF; format: cell-based; conditions: Homo sapiens; NHDF fibroblasts (non-malign)
Procedure: as §1

[3] = test system: HT-29 colon carcinoma cells; test: MTT cell growth inhibition, HT-29; format: cell-based, human; conditions: multi-drug resistant HT-29 colon cancer cells
Procedure: (§2) The effects of the compounds 5b, 6b, 8a, and 8e according to the present invention and of the reference compound 25f (Wang et al., J. Med. Chem. 2002, 45, 1697-1711) on cells of the following human tumor cell lines were evaluated: 518A2 melanoma, HL-60 leukemia, HT-29 colon carcinoma, KB-V1/Vbl cervical carcinoma, and MCF-7/Topo breast carcinoma.
(§3) The HL-60 cells were obtained from the German Collection of Biological Material (DSMZ), Braunschweig, Germany; the human 518A2 melanoma cells as well as the testicular germ cell tumor cell lines H12.1 and 1411HP were cultured in the department of oncology and hematology, Medical Faculty of the Martin-Luther University, Halle, Germany; the KBV1/Vbl and the MCF-7/Topo cells were obtained from the Institute of Pharmacy of the University Regensburg, Germany; and the colon HT-29 cells from the University Hospital Erlangen, Germany. The HL-60 and the HT-29 cells were grown in RPMI-1640 medium supplemented with 10% fetal calf serum (FCS), 100 IU/mL penicillin G, 100 μg/mL streptomycin sulfate, 0.25 μg/mL amphotericin B and 250 μg/mL gentamycine (all from Gibco, Egenstein, Germany). The 518A2 and the KB-V1/Vbl cells were cultured in Dulbecco's Modified Eagle Medium (D-MEM, Gibco) containing 10% FCS, 100 IU/mL penicillin G, 100 μg/mL streptomycin sulfate, 0.25 μg/mL amphotericin B and 250 μg/mL gentamycine. The MCF-7/Topo cells were grown in E-MEM medium (Sigma) supplemented with 2.2 g/L NaHCO3, 110 mg/L sodium pyruvate and 5% FCS. The cells were maintained in a moisture-saturated atmosphere (5% CO2) at 37° C. in 75-mL culture flasks (Nunc, Wiesbaden, Germany). They were serially passaged following trypsinisation by 0.05% trypsin/0.02% EDTA (PAA laboratories, Clbe, Germany). Mycoplasma contamination was routinely monitored, and only mycoplasma-free cultures were used.
(§4) MTT [3-(4,5-dimethylthiazol-2-yl)-2,5-diphenyltetrazolium bromide](ABCR) was used to identify viable cells which reduce it to a violet formazan (Mosmann, J. Immunol. Methods 1983, 65, 55-63). HL-60 leukemia cells (5×10^5/mL), and cells (5×10^4/mL) of 518A2 melanoma, HT-29 colon, KB-V1/Vbl cervix and MCF-7/Topo breast carcinoma were seeded out in 96-well tissue culture plates and cultured for 24 h. Incubation (5% CO2, 95% humidity, 37° C.) of the cells following treatment with the test compounds was continued for 24, 48 or 72 h. Blank and solvent controls were treated identically. MTT in phosphate buffered saline (5 mg/mL) was added to a final concentration of 0.05% (HL-60, 518A2) or 0.1% (HT-29, KB-V1/Vbl, MCF-7/Topo). After 2 h the formazan precipitate was dissolved in 10% sodium dodecylsulfate in DMSO containing 0.6% acetic acid in the case of the HL-60 cells. For the adherent 518A2, KB-V1/Vbl, MCF-7/Topo and HT-29 cells the microplates were swiftly turned to discard the medium before adding the solvent mixture. The microplates were gently shaken in the dark for 30 min and absorbance at 570 nm and 630 nm (background) was measured with an ELISA plate reader. All experiments were carried out in quadruplicate; the percentage of viable cells was calculated as the mean±SD with controls set to 100%.

[4] = test system: vascular system of a fertilized chicken embryo; test: CAM assay; format: in vivo; conditions: 10 nmol applied on the embryonal vessels; up to three days
Procedure: Compounds of the present invention were tested for anti-angiogenic and vasculature disrupting properties using the CAM assay. In this test the vascular system of a fertilized chicken embryo is used as a model (Wilting et al., Anat. Embryol. 1991, 183, 259-271).
Fertilized chicken eggs received from a nearby farm directly after laying have been incubated at a temperature of 36-38° C. and a relative humidity of 60%. During the growth the eggs have been held in an inclined position and turned from time to time in order to avoid an adherence to the shell. After four days each embryo was transferred into a cavity created by fixing a thin plastic foil on top of a cup and covered. This was done by opening the shell at the flat end where the air sac resides and letting the content slip out. There the growth continued for another 2-4 days until the first blood vessels became visible. Then 10 nmol of the substance to be tested (in 10 μL PBS with 1% DMF) have been applied directly on the embryonal vessels. As a reference PBS was used. Finally incubation continued for up to another three days (Dugan et al., Anat. Rec. 1991, 229, 125-128; Fisher, Tested studies for laboratory teaching 1993, 5, 105-115).

[5] = test system: 1411HP germ cell tumor xenografts; conditions: 1411HP xenografts; cited from earlier work
H12.1 xenograft = H12.1 xenograft bearing mice; cited from earlier work
[6] = Bedford et al., Bioorg. Med. Chem. Lett. 1996; cited from earlier work
518A2 cells [7] = test: Mitochondrial membrane assay (JC-1), 518A2; format: cell-based, human; conditions: 5 μM, red/green fluorescence ratio relative to untreated controls (100%), mean ± SD
Procedure: (§5) Values represent means of four independent experiments±standard deviation.
(§6) Changes in mitochondrial membrane potential were determined by the Mitochondrial Membrane Detection Kit (Stratagene, La Jolla, Calif., USA) according to the manufacturer's procedure. 72 h following treatment with 5 μM of the test compounds, cell samples were centrifuged at 400 g for 5 min. The pellets were resuspended in 500 μL diluted JC-1 solution, incubated at 37° C. for 15 min (HL-60) and then centrifuged again for 5 min at 400 g. After washing, the pellets were resuspended in 100 μL PBS and transferred into the wells of a black 96-well plate. The red (λex=585 nm, λem=590 nm) and green (λex=510 nm, λem=527 nm) fluorescence intensities were measured and their ratio was calculated.

518A2 cells [8] = test: ROS generation, NBT assay, 518A2; format: cell-based, human; conditions: 50 μM, relative to untreated controls (1%), mean ± SD
Procedure: (§7) The generation of reactive oxygen species (ROS) in tumor cells is a sign of cellular stress resulting in severe damage of cellular components such as DNA, lipids or proteins.
(§8) For the NBT assay, HL-60 cells (0.5·10^6/mL) were plated in 96-well tissue culture plates, and test compounds were added after 24 h incubation at 37° C. to achieve a final concentration of 50 μM. […] After removal of the cell medium by centrifugation, the cells in each well were resuspended in 100 μL 0.1% NBT, and the plates were placed in the incubator for 1 h. The reduced NBT was solubilized with 100 μl 2 M KOH and 130 μl DMSO for 30 min. The absorbance was measured for each well at 630 and 405 nm (background) using an ELISA plate reader. The adherent 518A2 cells (0.5·10^4/mL) were seeded out in 96-well tissue culture plates after trypsinization and incubation for 24 h at 37° C. to allow attachment, then treated similarly, only that the medium was removed prior to incubation with NBT for 4 h. All experiments were carried out in quadruplicate.

[9] = test system: MCF-7/Topo breast carcinoma cells; test: MTT cell growth inhibition, MCF-7/Topo; format: cell-based, human; conditions: MCF-7/Topo (BCRP+)
Procedure: as §2, §3
as §4, with “MTT in phosphate buffered saline (5 mg/mL) was added to a final concentration of 0.05% (HL-60, 518A2) or 0.1% (HT-29, KB-V1/Vbl, MCF-7/Topo). After 2 h the formazan precipitate was dissolved in 10% sodium dodecylsulfate in DMSO containing 0.6% acetic acid in the case of the HL-60 cells. For the adherent 518A2, KB-V1/Vbl, MCF-7/Topo and HT-29 cells the microplates were swiftly turned to discard the medium before adding the solvent mixture.” left out

HL-60 cells [10] = test: TUNEL assay; format: cell-based, human; conditions: 10 μM; 16 h incubation
HUVEC cells [11] = test: Tube formation assay on matrigel; format: cell-based
Procedure: 35 μL of media:matrigel (1:1) were added into wells of a 96-well plate and incubated at 37° C. for 30 minutes. A trypsinized HUVEC cell suspension was set to 800.000 cells/mL. In another 96-well plate 25 μL of the compound stock were serially diluted with 25 μL of media. 25 μL of compound dilutions and 25 μL of cell suspension were added to the matrigel coated 96-well plate and the cells were incubated over night. As a negative control, methanol was used as in place of the compound dilutions.

HL-60 cells [12] = test: ROS generation, NBT assay, HL-60; format: cell-based, human; conditions: 50 μM, relative to untreated controls (1%), mean ± SD
Procedure: as §7, §8

HL-60 cells [13] = test: Mitochondrial membrane assay (JC-1), HL-60; format: cell-based, human; conditions: 5 μM, red/green fluorescence ratio relative to untreated controls (100%), mean ± SD
Procedure: as §5, §6

[14] = test system: KB-V1/Vbl cervical carcinoma cells; test: MTT cell growth inhibition, KB-V1/Vbl; format: cell-based, human; conditions: KB-V1/Vbl (Pgp+)
Procedure: The MCF-7/Topo cells were grown in E-MEM medium (Sigma) supplemented with 2.2 g/L NaHCO3, 110 mg/L sodium pyruvate and 5% FCS. The cells were maintained in a moisture-saturated atmosphere (5% CO2) at 37° C. in 75-mL culture flasks (Nunc, Wiesbaden, Germany). They were serially passaged following trypsinisation by 0.05% trypsin/0.02% EDTA (PAA laboratories, Clbe, Germany). Mycoplasma contamination was routinely monitored, and only mycoplasma-free cultures were used.
as §4, with “HL-60” for “MTT [3-(4,5-dimethylthiazol-2-yl)-2,5-diphenyltetrazolium bromide](ABCR) was used to identify viable cells which reduce it to a violet formazan (Mosmann, J. Immunol. Methods 1983, 65, 55-63). HL-60”, “Incubation (5% CO2, 95% humidity, 37° C.) of the cells following treatment with the test compounds was continued for 24, 48 or 72 h.” left out

Row | Compound | IC50 (PC-3 prostata cancer) | IC50 (KB-3-1 cervix carcinoma) | IC50 (L929 fibroblasts) | IC50 [1] | minimal inhibitory concentration (MIC) HUVEC (HUVEC cells [2]) | IC50 (NHDF fibroblasts) | other results
1 | COc1ccc(-c2ncn(C)c2-c2cc(Br)c(OC)c(Br)c2)cc1F [9b, 1-Methyl-4-(3-fluoro-4-methoxyphenyl)-5-(3,5-dibromo-4-methoxyphenyl)-imidazole] | 9.9 nM | 14 nM | 21700 nM | 1180 nM | 0.257 µM (≈ 0.121 µg/mL) | 395 nM | 
2 | COc1ccc(-c2ncn(C)c2-c2cc(I)c(OC)c(I)c2)cc1F [9c, 1-Methyl-4-(3-fluoro-4-methoxyphenyl)-5-(3,5-diiodo-4-methoxyphenyl)-imidazole] | 3.3 nM | 2.5 nM | 18 nM | 333 nM | 0.083 µM (≈ 0.0468 µg/mL) | 3330 nM | 
3 | COc1ccc(/C=C\c2cc(OC)c(OC)c(OC)c2)cc1O [CA-4, combretastatin A-4, reference compound] |  |  |  |  |  |  | cytotoxicity (comparison) [3]: lower cytotoxicities than compounds 5b and 6b; effect on embryonal blood vessels [4]: dramatic vessel shrinkage within 24 h after treatment and to a complete degradation of the vascular system within three days
4 | N.N.[Cl][Pt][Cl] [cisplatin] |  |  |  |  |  |  | tumor response [5]: only a transient growth inhibition followed by renewed tumor progress; tumor response (H12.1 xenograft): complete regressions
5 | COc1ccc(/C=C\c2cc(OC)c(OC)c(OC)c2)cc1OP(=O)(O)O [combretastatin A-4-phosphate] |  |  |  |  |  |  | solubility in water [6]: about 5 mg/mL
6 | COc1ccc(-c2ocnc2-c2cc(N)c(OC)c(OC)c2)cc1N [compound 8a, 4-(3′-Amino-4′,5′-dimethoxyphenyl)-5-(3″-amino-4″-methoxyphenyl)-oxazole] |  |  |  |  |  |  | Intact mitochondria [%] in 518A2 cells after 72 h (518A2 cells [7]): 85 ± 7%; NBT Reduction [%] in 518A2 cells after 24 h (518A2 cells [8]): 1.5 ± 0.1%; cytotoxicity / efficacy (comparison) [9]: greater efficacy than 25f and 5b/6b; apoptotic (TUNEL-positive) cells (HL-60 cells [10]): about 60%; inhibition of tube formation (HUVEC cells [11]; 7.72 ng/mL): pronounced inhibition of tube formation; NBT Reduction [%] in HL-60 cells after 24 h (HL-60 cells [12]): 3.5 ± 0.4%; Intact mitochondria [%] in HL-60 cells after 72 h (HL-60 cells [13]): 62 ± 9%; efficacy (comparison) [14]: greater efficacy than 25f and 5b/6b
7 | COc1ccc(-c2c(-c3cc(OC)c(OC)c(OC)c3)ncn2C)cc1N [compound 25f, reference compound] | 90 nM | 68 nM | 215 nM | 453 nM | 0.294 µM (≈ 0.109 µg/mL) | 136 nM | Intact mitochondria [%] in 518A2 cells after 72 h (518A2 cells [7]): 87 ± 7%; NBT Reduction [%] in 518A2 cells after 24 h (518A2 cells [8]): 2.2 ± 0.4%; concentration that inhibits tube formation (HUVEC cells [11]): 130 ng/mL; Intact mitochondria [%] in HL-60 cells after 72 h (HL-60 cells [13]): 74% and 74 ± 13%
